Source: ChEMBL document CHEMBL4739716, “Gpr139 receptor modulators” (2020)

Tests used:
[1] = target: T1, Probable G-protein coupled receptor 139 (Homo sapiens) (UniProt Q6DWJ6); experiment: Agonist activity at human GPR139 expressed in CHO-K1 cells assessed as increase in calcium flux by calcium 5 dye based FLIPR assay relative to JNJ63533054; format: functional, cell-based
T1 sequence (whole entry): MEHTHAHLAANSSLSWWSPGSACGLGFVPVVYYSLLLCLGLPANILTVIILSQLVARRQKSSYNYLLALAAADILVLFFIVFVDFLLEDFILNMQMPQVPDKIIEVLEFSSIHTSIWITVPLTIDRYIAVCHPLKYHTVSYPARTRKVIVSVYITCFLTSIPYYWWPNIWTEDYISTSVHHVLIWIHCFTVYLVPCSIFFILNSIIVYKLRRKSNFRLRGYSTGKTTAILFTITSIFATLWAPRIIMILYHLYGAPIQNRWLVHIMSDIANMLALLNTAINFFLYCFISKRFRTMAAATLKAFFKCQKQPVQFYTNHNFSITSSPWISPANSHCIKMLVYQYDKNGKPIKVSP

[2] = target: T2, Probable G-protein coupled receptor 139 (Homo sapiens, UniProt Q6DWJ6); experiment: Agonist activity at human GPR139 expressed in CHO-K1 cells assessed as increase in calcium flux by calcium 5 dye based FLIPR assay; format: functional, cell-based
T2 sequence (Q6DWJ6 whole entry): T1 sequence (whole entry)

[3] = target: T3, Probable G-protein coupled receptor 139 (Rattus norvegicus, UniProt P0C0W8); experiment: Agonist activity at rat GPR139 expressed in CHO-K1 cells assessed as increase in calcium flux by calcium 5 dye based FLIPR assay; format: cell-based
T3 sequence (P0C0W8 whole entry): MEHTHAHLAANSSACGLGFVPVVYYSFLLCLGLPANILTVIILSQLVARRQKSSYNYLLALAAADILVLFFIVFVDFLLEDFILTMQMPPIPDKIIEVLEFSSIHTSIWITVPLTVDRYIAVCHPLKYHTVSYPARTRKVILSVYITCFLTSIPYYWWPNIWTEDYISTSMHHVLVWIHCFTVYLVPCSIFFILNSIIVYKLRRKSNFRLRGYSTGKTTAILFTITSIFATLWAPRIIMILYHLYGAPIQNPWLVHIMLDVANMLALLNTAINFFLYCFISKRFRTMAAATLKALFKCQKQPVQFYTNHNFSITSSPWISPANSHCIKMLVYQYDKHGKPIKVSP

[4] = target: T4, Probable G-protein coupled receptor 139 (Rattus norvegicus) (UniProt P0C0W8); experiment: Agonist activity at rat GPR139 expressed in CHO-K1 cells assessed as increase in calcium flux by calcium 5 dye based FLIPR assay relative to JNJ63533054; format: cell-based
T4 sequence (whole entry): T3 sequence (P0C0W8 whole entry)

SMILES	Emax ([1]; filed as agonist) [%]	EC50 ([2]; cho-k1) [nM]	EC50 [3] [nM]	Emax [4] [%]	EC50 ([3]; cho-k1) [nM]	Emax ([4]; filed as agonist) [%]	EC50 [2] [nM]	Emax [1] [%]
Cc1ccn2c(=O)n(CC(=O)N[C@@H](C)c3ccc(OC(F)(F)F)cc3)nc2n1	50	1	≥ 100	< 25	–	–	–	–
C[C@H](NC(=O)Cn1nc2cccnn2c1=O)c1ccc(OC(F)(F)F)cc1	> 80	1	–	–	10	50	–	–
C[C@H](NC(=O)Cn1nc2c(I)ccnn2c1=O)c1ccc(Cl)c(F)c1	> 80	–	–	–	1	> 80	< 1	–
O=C(Cn1nc2ccccn2c1=O)NC(c1ccc(Cl)cc1)C1CC1 (stereo unspecified)	> 80	10	–	–	–	–	–	–
Cc1cn2c(=O)n(CC(=O)N[C@@H](C)c3ccc(OC(F)(F)F)cc3)nc2cn1	> 80	1	≥ 100	25	–	–	–	–
CC(NC(=O)Cn1nc2ccccn2c1=O)c1ccc(OC(F)F)cc1 (stereo in doubt)	> 80	10	–	–	–	–	–	–
COc1ccn2c(=O)n(CC(=O)N[C@@H](C)c3ccc(C)cc3)nc2n1	> 80	1	–	–	1	50	–	–
Cc1cc(C)n2c(=O)n(CC(=O)N[C@@H](C)c3ccc(Cl)cc3)nc2n1	50	1	≥ 100	< 25	–	–	–	–
C[C@H](NC(=O)Cn1nc2ncc(F)cn2c1=O)c1ccc(Cl)cc1	> 80	1	≥ 100	25	–	–	–	–
Cc1ccc([C@H](C)NC(=O)Cn2nc3ccncn3c2=O)cc1	> 80	1	–	–	–	–	–	–
Cc1ccc([C@H](C)NC(=O)Cn2nc3cnccn3c2=O)cc1	> 80	10	≥ 100	–	–	50	–	–
Cc1ccc([C@H](C)NC(=O)Cn2nc3cc(C)nc(C)n3c2=O)cc1	> 80	1	–	–	–	–	–	–
C[C@H](NC(=O)Cn1nc2c(N3CCNCC3)nccn2c1=O)c1ccc(Cl)c(F)c1	> 80	1	–	–	10	50	–	–
Cc1cnc2nn(CC(=O)N[C@@H](C)c3ccc(Cl)c(F)c3)c(=O)n2c1	> 80	1	–	–	1	> 80	–	–
CC(C)Oc1ccc([C@H](C)NC(=O)Cn2nc3ccccn3c2=O)cc1	50	10	≥ 100	25	–	–	–	–
C[C@H](NC(=O)Cn1nc2c(N3CCCCC3)nccn2c1=O)c1ccc(Cl)c(F)c1	> 80	–	< 1	–	–	> 80	< 1	–
C[C@H](NC(=O)Cn1nc2ccccn2c1=O)c1cncc(F)c1	50	–	–	–	–	–	≥ 100	–
Cc1cc2nn(CC(=O)N[C@@H](C)c3ccc(Cl)cc3)c(=O)n2c(C)n1	> 80	–	≥ 100	< 25	–	–	< 1	–
CNc1nccn2c(=O)n(CC(=O)N[C@@H](C)c3ccc(Cl)c(F)c3)nc12	> 80	–	< 1	–	–	> 80	< 1	–
C[C@@H](NC(=O)Cn1nc2ccccn2c1=O)c1ccc(OC(F)F)cc1	50	–	–	–	–	–	≥ 100	–
Cc1cc(C)n2c(=O)n(CC(=O)N[C@@H](C)c3ccc(Cl)c(F)c3)nc2n1	> 80	–	–	–	1	50	< 1	–
C[C@H](NC(=O)Cn1nc2cnccn2c1=O)c1ccc(Cl)c(F)c1	> 80	1	–	–	1	> 80	–	–
Cc1nccn2c(=O)n(CC(=O)N[C@@H](C)c3ccc(OC(F)(F)F)cc3)nc12	> 80	–	–	–	1	> 80	< 1	–
Cc1ccc([C@H](C)NC(=O)Cn2nc3cccc(Br)n3c2=O)cc1	> 80	1	–	–	–	–	–	–
Cc1ccc([C@H](C)NC(=O)Cn2nc3ncccn3c2=O)cc1	> 80	10	≥ 100	25	–	–	–	–
C[C@H](NC(=O)Cn1nc2ncccn2c1=O)c1ccc(Cl)c(Cl)c1	> 80	1	–	–	10	50	–	–

SMILES	Emax ([1]; filed as agonist) [%]	EC50 ([2]; cho-k1) [nM]	EC50 [3] [nM]	Emax [4] [%]	EC50 ([3]; cho-k1) [nM]	Emax ([4]; filed as agonist) [%]	EC50 [2] [nM]	Emax [1] [%]
C[C@H](NC(=O)Cn1nc2ncccn2c1=O)c1ccc(OC(F)(F)F)cc1	> 80	10	≥ 100	< 25	–	–	–	–
C[C@H](NC(=O)Cn1nc2ccccn2c1=O)c1ccc(OC(F)F)cc1	> 80	1	–	25	10	–	–	–
C[C@H](NC(=O)Cn1nc2c(OC3CNC3)nccn2c1=O)c1ccc(Cl)c(F)c1	50	–	≥ 100	25	–	–	≥ 100	–
C[C@H](NC(=O)Cn1nc2ccccn2c1=O)c1ccc(OC(F)(F)F)cc1	> 80	1	–	25	1	–	–	–
Cc1ccnc2nn(CC(=O)N[C@@H](C)c3ccc(OC(F)(F)F)cc3)c(=O)n12	50	1	≥ 100	< 25	–	–	–	–
C[C@H](NC(=O)Cn1nc2c(N3CCN(C)CC3)nccn2c1=O)c1ccc(Cl)c(F)c1	50	1	–	–	1	> 80	–	–
C[C@H](NC(=O)Cn1nc2ccc(Cl)nn2c1=O)c1ccc(Cl)c(F)c1	> 80	–	< 1	–	–	> 80	< 1	–
C[C@H](NC(=O)Cn1nc2ccc(N3CCCCC3)nn2c1=O)c1ccc(OC(F)(F)F)cc1	–	10	≥ 100	< 25	–	–	–	25
Cc1ccc([C@H](C)NC(=O)C(C)n2nc3ccccn3c2=O)cc1 (stereo in doubt; form 1) [listing 1 of 2 here]	–	1	–	–	1	–	–	–
Cc1ccc([C@@H](C)NC(=O)Cn2nc3ccccn3c2=O)cc1	50	–	–	–	–	–	≥ 100	–
CC1COCCN1c1cccc2nn(CC(=O)N[C@@H](C)c3ccc(Cl)c(F)c3)c(=O)n12 (stereo partly specified)	> 80	–	–	–	1	> 80	< 1	–
C[C@H](NC(=O)Cn1nc2ncc(F)cn2c1=O)c1ccc(Cl)c(F)c1	> 80	1	–	–	1	> 80	–	–
C[C@H](NC(=O)Cn1nc2ccccn2c1=O)c1ccc(Cl)cc1	> 80	–	< 1	–	–	50	< 1	–
C[C@H](NC(=O)Cn1nc2ncccn2c1=O)c1ccc(Cl)cc1	> 80	10	≥ 100	25	–	–	–	–
C[C@H](NC(=O)Cn1nc2cccc(N3CC(O)C3)n2c1=O)c1ccc(OC(F)(F)F)cc1	50	–	–	25	1	–	< 1	–
Cc1ccc([C@H](C)NC(=O)Cn2nc3c(N)cccn3c2=O)cc1	> 80	1	–	–	1	50	–	–
Cc1ccc([C@H](C)NC(=O)Cn2nc3cnc(C)cn3c2=O)cc1	> 80	1	–	–	1	50	–	–
C[C@H](NC(=O)Cn1nc2cccc(N3CCNCC3)n2c1=O)c1ccc(OC(F)(F)F)cc1	> 80	10	≥ 100	25	–	–	–	–
Cc1nccn2c(=O)n(CC(=O)N[C@@H](C)c3ccc(Cl)c(F)c3)nc12	> 80	–	< 1	–	–	> 80	< 1	–
Cc1ccc([C@H](C)NC(=O)Cn2nc3c(NC(=O)OC(C)(C)C)cccn3c2=O)cc1	50	1	–	–	–	–	–	–
Cc1ccc([C@H](C)NC(=O)C(C)n2nc3ccccn3c2=O)cc1 (stereo in doubt; form 1) [listing 2 of 2 here]	> 80	–	–	–	–	50	–	–
C[C@H](NC(=O)Cn1nc2cccc(N3CCN(C)CC3)n2c1=O)c1ccc(Cl)c(F)c1	> 80	1	≥ 100	–	–	> 80	–	–
C[C@H](NC(=O)Cn1nc2cccc(N3CCOCC3)n2c1=O)c1ccc(Cl)c(F)c1	> 80	–	–	–	1	> 80	< 1	–
Cc1ccc([C@H](C)NC(=O)Cn2nc3ccc(Br)cn3c2=O)cc1	> 80	1	< 1	–	–	50	–	–
C[C@H](NC(=O)Cn1nc2cccc(N3CC(F)(F)C3)n2c1=O)c1ccc(Cl)c(F)c1	> 80	–	< 1	–	–	50	< 1	–
Cc1ccc([C@H](C)NC(=O)Cn2nc3c(C4CCNC4)cccn3c2=O)cc1 (stereo partly specified)	50	–	≥ 100	–	–	50	≥ 100	–
